From PMC4476171 (Cardiovascular Diabetology, 2015) come the findings set out here.

SMILES strings stand for the structures.

Series [1] has as its system anesthetized male Sprague–Dawley rats. Kind of series: Renal excretory function: urine flow rate, urinary Na+, K+, Cl− excretion. The series is classed as in vivo, rat. To be noted: anesthetized male SD rats, Figure 5. The procedure:
(§1) After one week of acclimation, SD rats (10–12 weeks old) were randomly divided into study groups. Rats were anesthetized with thiobutabarbital sodium (Inactin, 110 mg/kg, IP; Sigma-Aldrich, St. Louis, Missouri). Core temperature was maintained between 36 and 37°C throughout the study using a heating pad (Fine Science Tools Inc., Foster City, California). Polyethylene PE-50 tubing was inserted into the left femoral artery to permit intermittent blood sampling, and was also connected to a pressure transducer (NL108T2, Harvard Apparatus, Holliston, Massachusetts) for the measurement of blood pressure (BP) and heart rate (HR). […] Urine volumes were measured and urine was analyzed for electrolytes (Na^+, K^+, and Cl^−) and pH at multiple time points during the study. GFR and RBF were determined by inulin and PAH renal clearance at baseline and the end of the study. […]
(§2) One group of animals received four successive infusions of saline. […] BP, HR, urinary Na^+, K^+, and Cl^− excretion were measured at baseline and at the end of each 20 minute infusion period. GFR and RBF were assessed at baseline and at the end of the last infusion period in each animal (Figure 1).
(§3) Animals were randomized into 8 experimental groups (n = 6 - 8) (Table 1): Group 1. […] Parameters measured are the same as described in Protocol 1 (Figure 2). […]

Series [2] has the same test system. The series is described as follows: Renal blood flow by para-aminohippurate clearance. The series is classed as in vivo, rat. To be noted: anesthetized male SD rats. The procedure: as §1, §2, §3
The test system is the same in series [3]. The series is described as follows: Glomerular filtration rate by inulin clearance. In kind it is in vivo, rat. To be noted: anesthetized male SD rats. The procedure:
as §1, §2, §3

The nature of series [4]: Plasma concentration of active GLP-1 (ELISA). The series is classed as in vivo, rat. To be noted: anesthetized male SD rats. The protocol: as §1, with “(HR). The signal from the pressure transducer was transmitted to a Ponemah data acquisition system (Data Science International, St. Paul, Minnesota). The left femoral vein was cannulated with PE-50 tubing for solution administration and compound delivery, respectively. The bladder was catheterized with PE-100 tubing to allow timed collections of urine.” for “(HR).”
Na^+, K^+, and Cl^− concentrations in plasma and urine were measured by a Roche Modular Chemistry System (Roche Diagnostics, Indianapolis, Indiana). Hematocrit was determined using a HESKA I-STAT Hematology Analyzer (HESKA, Fribourg, Switzerland). Urine pH was measured by a pH meter (Fisher Scientific, Pittsburgh, Pennsylvania). Inulin and PAH concentrations in plasma and urine were determined by colorimetric assays. […] Plasma DPP4 activity was measured using a continuous fluorometric assay with the substrate Gly-Pro-AMC, which is cleaved by DPP4 to release the fluorescent AMC leaving group.
(In an ELISA, binding on a coated surface is turned into a signal by an enzyme label.)

Series [5] deals with anesthetized male Sprague–Dawley rats. The series is described as follows: Plasma glucose. In kind it is in vivo, rat. As to conditions: anesthetized male SD rats, mean ± SE, n = 6-8.
Experimental: After one week of acclimation, SD rats (10–12 weeks old) were randomly divided into study groups. Rats were anesthetized with thiobutabarbital sodium (Inactin, 110 mg/kg, IP; Sigma-Aldrich, St. Louis, Missouri). Core temperature was maintained between 36 and 37°C throughout the study using a heating pad (Fine Science Tools Inc., Foster City, California). Polyethylene PE-50 tubing was inserted into the left femoral artery to permit intermittent blood sampling, and was also connected to a pressure transducer (NL108T2, Harvard Apparatus, Holliston, Massachusetts) for the measurement of blood pressure (BP) and heart rate (HR). The signal from the pressure transducer was transmitted to a Ponemah data acquisition system (Data Science International, St. Paul, Minnesota). The left femoral vein was cannulated with PE-50 tubing for solution administration and compound delivery, respectively. […] In addition, 0.9% saline was infused via a Y shape adapter to the left femoral vein at a rate of 0.1 ml/100 g/h. Rats were allowed to stabilize for ~1 hour before initiation of the study. The experimental protocol was initiated with a 20-minute baseline urine collection, followed by administration of either vehicle or test compound at a rate of 0.1 ml/100 g/h for 60-minutes.
For series [6] the test system is unchanged. The series is described as follows: Blood pressure recorded from indwelling femoral artery catheter. To be noted: anesthetized male SD rats, mean ± SE, n = 6-8. In kind it is in vivo, rat. The procedure: as §1, §2
(§4) Animals were randomized into 8 experimental groups (n = 6 - 8) (Table 1): Group 1. […] Parameters measured are the same as described in Protocol 1 (Figure 2).

For series [7] the test system is unchanged. The series is described as follows: Plasma K+ concentration. The series is classed as in vivo, rat. To be noted: anesthetized male SD rats, mean ± SE, n = 6-8. The protocol:
as §1
(§5) Na^+, K^+, and Cl^− concentrations in plasma and urine were measured by a Roche Modular Chemistry System (Roche Diagnostics, Indianapolis, Indiana). Hematocrit was determined using a HESKA I-STAT Hematology Analyzer (HESKA, Fribourg, Switzerland). Urine pH was measured by a pH meter (Fisher Scientific, Pittsburgh, Pennsylvania). Inulin and PAH concentrations in plasma and urine were determined by colorimetric assays. […]

The next series deals with T1, DPP4 (Rattus norvegicus, UniProt P14740).
T1 construct: from tissue; host or cells: plasma of Sprague-Dawley rats
T1 sequence (P14740 37-767 limits assumed): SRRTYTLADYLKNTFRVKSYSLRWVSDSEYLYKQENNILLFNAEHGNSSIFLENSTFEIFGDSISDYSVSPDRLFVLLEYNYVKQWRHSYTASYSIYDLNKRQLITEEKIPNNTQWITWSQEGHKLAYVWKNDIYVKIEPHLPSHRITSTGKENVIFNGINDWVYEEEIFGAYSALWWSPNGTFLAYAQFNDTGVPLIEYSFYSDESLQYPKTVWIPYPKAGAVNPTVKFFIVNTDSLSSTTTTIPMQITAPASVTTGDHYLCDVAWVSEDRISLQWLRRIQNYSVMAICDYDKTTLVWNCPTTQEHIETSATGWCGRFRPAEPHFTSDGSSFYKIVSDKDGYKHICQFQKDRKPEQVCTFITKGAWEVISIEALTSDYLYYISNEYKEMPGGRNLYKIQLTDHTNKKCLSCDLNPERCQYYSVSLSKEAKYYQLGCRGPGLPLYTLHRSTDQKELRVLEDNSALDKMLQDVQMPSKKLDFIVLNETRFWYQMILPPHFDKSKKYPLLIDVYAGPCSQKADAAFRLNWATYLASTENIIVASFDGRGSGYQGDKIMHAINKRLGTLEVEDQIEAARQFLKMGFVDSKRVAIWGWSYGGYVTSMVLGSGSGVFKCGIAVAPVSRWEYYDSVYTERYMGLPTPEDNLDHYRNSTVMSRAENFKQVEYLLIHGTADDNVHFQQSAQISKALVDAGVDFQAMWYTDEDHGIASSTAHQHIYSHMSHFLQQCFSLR
The series is described as follows: Plasma DPP4 activity, continuous fluorometric assay with Gly-Pro-AMC. The series is classed as in vivo. As to conditions: anesthetized male SD rats, MK-0626 1 mg/kg iv bolus, substrate Gly-Pro-AMC. The protocol: as §1, §5

In series [8] the test system is anesthetized male Sprague–Dawley rats. The series is described as follows: Hematocrit. The series is classed as in vivo, rat. To be noted: anesthetized male SD rats, mean ± SE, n = 6-8. The protocol: as §1, §5
Series [9] shares this test system. Kind of series: Urine pH. In kind it is in vivo, rat. To be noted: anesthetized male SD rats, mean ± SE, n = 6-8. The procedure: as §1, §5
The test system is the same in series [10]. The series is described as follows: Heart rate recorded from indwelling femoral artery catheter. The series is classed as in vivo, rat. To be noted: anesthetized male SD rats, mean ± SE, n = 6-8. The procedure:
as §1, §2, §4

For series [11] the test system is unchanged. The series is described as follows: Plasma insulin. In kind it is in vivo, rat. As to conditions: anesthetized male SD rats, mean ± SE, n = 6-8. The protocol: as §1, with “(HR). The signal from the pressure transducer was transmitted to a Ponemah data acquisition system (Data Science International, St. Paul, Minnesota). The left femoral vein was cannulated with PE-50 tubing for solution administration and compound delivery, respectively. The bladder was catheterized with PE-100 tubing to allow timed collections of urine.” for “(HR).”

Where [12] appears, read: group MK-0626 + Saline, baseline = 20 min period prior to IV administration.
The mark [13] stands for this setting: MK-0626 1 mg/kg iv bolus followed by saline iv infusion, end of study.
Where [14] appears, read: MK-0626 1 mg/kg iv bolus followed by saline iv infusion.

For `CC[C@H](C)[C@H](NC(=O)[C@H](Cc1ccccc1)NC(=O)[C@H](CCC(=O)O)NC(=O)[C@H](CCCCN)NC(=O)[C@H](C)NC(=O)[C@H](C)NC(=O)[C@H](CCC(N)=O)NC(=O)CNC(=O)[C@H](CCC(=O)O)NC(=O)[C@H](CC(C)C)NC(=O)[C@H](Cc1ccc(O)cc1)NC(=O)[C@H](CO)NC(=O)[C@H](CO)NC(=O)[C@@H](NC(=O)[C@H](CC(=O)O)NC(=O)[C@H](CO)NC(=O)[C@@H](NC(=O)[C@H](Cc1ccccc1)NC(=O)[C@@H](NC(=O)CNC(=O)[C@H](CCC(=O)O)NC(=O)[C@H](C)NC(=O)[C@@H](N)Cc1c[nH]cn1)[C@@H](C)O)[C@@H](C)O)C(C)C)C(=O)N[C@@H](C)C(=O)N[C@@H](Cc1c[nH]c2ccccc12)C(=O)N[C@@H](CC(C)C)C(=O)N[C@H](C(=O)N[C@@H](CCCCN)C(=O)NCC(=O)N[C@@H](CCCNC(=N)N)C(N)=O)C(C)C` [GLP-1, Glucagon-like peptide 1, reference compound], in series [1] (saline bolus followed by GLP-1 iv infusion alone (2.4, 4.8, 9.6 pmol/kg/min)), the “effect on diuresis, natriuresis, chloruresis and kaliuresis” value is “modest, albeit significant increase”. The “effect on RBF” value in series [2] (GLP-1 alone, only at the highest dose 9.6 pmol/kg/min, Figure 6c) is “significant effect”. Besides, the “effect on GFR” value in series [3] (GLP-1 iv infusion alone, no dose-dependence, Figure 6a) is reported as “modest increase”. Also, the “effect on plasma active GLP-1 levels” value in series [4] (exogenous GLP-1 infusion 2.4, 4.8 and 9.6 pmol/kg/min, further enhanced after MK-0626, Figure 4) is listed as “step-wise increase”.
As to `CN(C)C(=O)[C@@H](c1ccc(-c2ccc3ncnn3c2)cc1)[C@H](N)C(=O)N1CCC(F)(F)C1.Cl` [MK-0626], in series [5] (setting [12]), the “Glucose, baseline” value was determined as 134.9 ± 6.0 mg/dL. Also, in series [5] (setting [13]), the “Glucose, treatment” value came out at 135.8 ± 7.3 mg/dL. Further, the “BP, baseline” value in [6] (setting [12]) is 123.5 ± 3.7 mmHg. Also, in series [6] (setting [14]), the “BP, treatment” value is 121.9 ± 3.9 mmHg. The “effect on diuresis or natriuresis” value in series [1] (MK-0626 1 mg/kg iv bolus alone) is listed as “no significant effect”. Also, the “effect on RBF” value in [2] (MK-0626 1 mg/kg alone, in the absence of GLP-1 administration) is recorded as “increased”. In addition, in series [7] (setting [12]), the “plasma K+, baseline” value came to 4.4 ± 0.14 mmol/L. For the same compound, the “plasma K+, treatment” value in series [7] (setting [13]) stood at 4.2 ± 0.10 mmol/L. In series [3] (all animals that received MK-0626 1 mg/kg, not further enhanced by increasing doses of GLP-1, Figure 6b), the “effect on GFR” value is listed as “increased”. The “Plasma DPP4 activity, inhibition” value at DPP4 is given as “greater than 90%”. The “Hematocrit, baseline” value in series [8] (setting [12]) came to 40.0 ± 0.8%. Also, the “Hematocrit, treatment” value in series [8] (setting [13]) is 38.2 ± 0.6%. For the same compound, the “urine pH, baseline” value in series [9] (setting [12]) was 6.07 ± 0.17. Besides, the “urine pH, treatment” value in series [9] (setting [14]) is reported as 6.25 ± 0.20. Moreover, the “HR, baseline” value in series [10] (setting [12]) came out at 381.2 ± 10.0 bpm. In addition, the “HR, treatment” value in [10] (setting [14]) is 380.9 ± 10.3 bpm. Moreover, in series [11] (setting [12]), the “Insulin, baseline” value was found to be 2.5 ± 0.2 ng/mL. For the same compound, the “Insulin, treatment” value in series [11] (setting [13]) is 2.7 ± 0.1 ng/mL. Besides, the “circulating GLP-1 level, baseline before MK-0626 alone” value in [4] (group MK-0626 alone, baseline, ELISA, active GLP-1) is 3.4 pmpol/L. For the same compound, the “circulating GLP-1 level after MK-0626 alone” value in [4] (MK-0626 1 mg/kg iv bolus alone (no exogenous GLP-1), ELISA, active GLP-1) is 5.5 pmol/L.
